Results on eleven molecules are retold here after BindingDB's records for doi:10.1023/a:1006986824213 (1999).

What is called Ki is a measure of affinity in units of concentration, obtained from inhibition or displacement. Low values mean higher affinity, high ones lower affinity.

Targets include Histamine H1 receptor (Rattus norvegicus, UniProt P31390); D(1A) dopamine receptor (Rattus norvegicus, UniProt P18901); D(2) dopamine receptor (Rattus norvegicus, UniProt P61169).
Assay [1] concerns the target Sodium-dependent dopamine transporter (Rattus norvegicus, UniProt P23977).
Assay [2] deals with Beta-2 adrenergic receptor (Rattus norvegicus, UniProt P10608).
Assay [3] has as its target T1, Alpha-1A adrenergic receptor (Rattus norvegicus, UniProt P43140).
T1 sequence (P43140 whole entry): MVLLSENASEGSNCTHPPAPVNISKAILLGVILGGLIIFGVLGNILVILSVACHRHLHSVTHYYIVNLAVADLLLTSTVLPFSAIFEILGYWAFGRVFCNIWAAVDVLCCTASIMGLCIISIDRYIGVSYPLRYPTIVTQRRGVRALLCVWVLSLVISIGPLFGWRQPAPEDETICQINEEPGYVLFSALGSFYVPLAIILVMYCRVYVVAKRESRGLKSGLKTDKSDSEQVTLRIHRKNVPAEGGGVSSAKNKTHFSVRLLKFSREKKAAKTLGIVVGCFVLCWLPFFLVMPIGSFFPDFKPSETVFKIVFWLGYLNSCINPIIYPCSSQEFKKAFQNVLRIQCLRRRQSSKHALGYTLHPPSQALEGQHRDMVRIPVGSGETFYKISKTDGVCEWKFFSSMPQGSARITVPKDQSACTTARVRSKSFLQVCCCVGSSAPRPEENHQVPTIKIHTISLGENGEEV

The target of assay [4] is T2, Muscarinic acetylcholine receptor M2 (Rattus norvegicus, UniProt P10980).
T2 sequence (P10980 whole entry): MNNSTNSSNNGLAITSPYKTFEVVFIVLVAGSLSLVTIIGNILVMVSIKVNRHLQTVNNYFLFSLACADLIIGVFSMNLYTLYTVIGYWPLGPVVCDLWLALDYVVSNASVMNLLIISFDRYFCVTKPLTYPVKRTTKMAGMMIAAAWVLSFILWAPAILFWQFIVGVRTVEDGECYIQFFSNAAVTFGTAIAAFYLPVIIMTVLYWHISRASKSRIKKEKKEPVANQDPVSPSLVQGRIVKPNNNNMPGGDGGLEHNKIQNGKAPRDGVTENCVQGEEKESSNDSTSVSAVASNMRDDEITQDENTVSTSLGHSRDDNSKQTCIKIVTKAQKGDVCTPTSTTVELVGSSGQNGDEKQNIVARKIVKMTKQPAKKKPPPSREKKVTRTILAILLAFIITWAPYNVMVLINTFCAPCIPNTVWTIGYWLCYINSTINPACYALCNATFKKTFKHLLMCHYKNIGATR

Assay [5] has as its target T3, 5-hydroxytryptamine receptor 1A (Rattus norvegicus, UniProt P19327).
T3 sequence (P19327 whole entry): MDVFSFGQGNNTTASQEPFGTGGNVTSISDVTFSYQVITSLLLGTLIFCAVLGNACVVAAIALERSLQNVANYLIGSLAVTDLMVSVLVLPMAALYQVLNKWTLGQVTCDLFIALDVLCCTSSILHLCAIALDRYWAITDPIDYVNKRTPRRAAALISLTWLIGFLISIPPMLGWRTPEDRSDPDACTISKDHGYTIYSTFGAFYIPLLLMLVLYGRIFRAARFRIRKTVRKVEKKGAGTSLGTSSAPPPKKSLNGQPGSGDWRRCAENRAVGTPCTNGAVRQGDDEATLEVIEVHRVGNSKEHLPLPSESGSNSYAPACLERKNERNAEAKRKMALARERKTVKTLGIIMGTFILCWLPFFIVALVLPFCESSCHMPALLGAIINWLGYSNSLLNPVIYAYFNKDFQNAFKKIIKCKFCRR

For assay [6], the target named is T4, Alpha-2C adrenergic receptor (Rattus norvegicus, UniProt P22086).
T4 sequence (P22086 whole entry): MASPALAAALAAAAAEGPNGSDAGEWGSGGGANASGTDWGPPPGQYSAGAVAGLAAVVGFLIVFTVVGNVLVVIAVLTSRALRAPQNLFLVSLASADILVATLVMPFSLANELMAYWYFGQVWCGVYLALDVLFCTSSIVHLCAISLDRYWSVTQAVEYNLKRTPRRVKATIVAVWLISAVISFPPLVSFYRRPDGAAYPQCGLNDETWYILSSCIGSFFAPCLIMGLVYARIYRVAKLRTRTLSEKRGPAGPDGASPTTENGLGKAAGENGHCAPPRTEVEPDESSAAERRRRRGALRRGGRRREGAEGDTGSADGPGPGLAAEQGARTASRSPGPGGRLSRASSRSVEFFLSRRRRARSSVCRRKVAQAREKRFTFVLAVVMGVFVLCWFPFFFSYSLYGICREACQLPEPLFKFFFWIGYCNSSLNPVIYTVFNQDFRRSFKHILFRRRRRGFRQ

Assay [7] addresses Norepinephrine transporter (Rattus norvegicus, UniProt Q9JIA2).
Assay [8] concerns the target T5, 5-hydroxytryptamine receptor 2C (Rattus norvegicus, UniProt P08909).
T5 sequence (P08909 whole entry): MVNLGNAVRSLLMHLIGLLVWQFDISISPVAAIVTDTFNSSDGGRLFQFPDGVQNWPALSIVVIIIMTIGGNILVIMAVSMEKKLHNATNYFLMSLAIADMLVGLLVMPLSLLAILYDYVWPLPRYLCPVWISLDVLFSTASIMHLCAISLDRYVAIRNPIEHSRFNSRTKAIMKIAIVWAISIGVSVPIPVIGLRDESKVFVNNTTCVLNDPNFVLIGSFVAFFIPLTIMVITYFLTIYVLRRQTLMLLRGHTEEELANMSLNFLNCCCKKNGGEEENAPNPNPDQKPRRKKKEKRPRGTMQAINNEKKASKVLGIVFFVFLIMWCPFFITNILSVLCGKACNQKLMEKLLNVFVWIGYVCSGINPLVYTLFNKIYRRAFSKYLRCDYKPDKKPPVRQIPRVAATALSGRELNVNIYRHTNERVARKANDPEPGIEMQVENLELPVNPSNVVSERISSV

Assay [9] deals with 5-hydroxytryptamine receptor 2A (Rattus norvegicus, UniProt P14842).
Assay [10] concerns the target Sodium-dependent serotonin transporter (Rattus norvegicus, UniProt P31652).

Structures can show the parent of a compound that is named as a salt.

Chain of Beta-2 adrenergic receptor (P10608 whole entry): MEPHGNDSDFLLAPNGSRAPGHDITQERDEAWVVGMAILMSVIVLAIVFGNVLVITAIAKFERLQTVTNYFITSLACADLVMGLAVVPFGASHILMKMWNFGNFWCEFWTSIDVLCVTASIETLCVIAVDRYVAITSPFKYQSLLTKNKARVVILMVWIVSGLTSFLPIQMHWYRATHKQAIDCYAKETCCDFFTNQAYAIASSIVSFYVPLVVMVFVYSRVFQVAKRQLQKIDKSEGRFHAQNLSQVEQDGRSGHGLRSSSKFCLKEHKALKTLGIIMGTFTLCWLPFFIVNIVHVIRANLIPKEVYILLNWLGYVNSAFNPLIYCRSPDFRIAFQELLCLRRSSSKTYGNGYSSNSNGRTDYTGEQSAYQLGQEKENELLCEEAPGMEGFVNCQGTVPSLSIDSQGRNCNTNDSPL
Chain of Histamine H1 receptor (P31390 whole entry): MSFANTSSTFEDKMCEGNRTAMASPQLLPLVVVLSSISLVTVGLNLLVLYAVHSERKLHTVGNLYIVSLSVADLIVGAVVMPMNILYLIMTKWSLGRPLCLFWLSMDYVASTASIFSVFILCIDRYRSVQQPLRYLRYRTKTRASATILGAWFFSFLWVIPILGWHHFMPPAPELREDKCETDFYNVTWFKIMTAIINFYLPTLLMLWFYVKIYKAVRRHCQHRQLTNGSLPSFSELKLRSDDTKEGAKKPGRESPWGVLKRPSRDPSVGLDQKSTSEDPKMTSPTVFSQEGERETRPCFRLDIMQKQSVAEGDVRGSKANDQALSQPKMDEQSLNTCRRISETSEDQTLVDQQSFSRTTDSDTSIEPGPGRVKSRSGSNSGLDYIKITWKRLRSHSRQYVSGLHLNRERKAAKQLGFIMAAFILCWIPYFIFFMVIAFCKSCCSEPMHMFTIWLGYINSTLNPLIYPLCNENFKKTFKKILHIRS
Chain of D(1A) dopamine receptor (P18901 whole entry): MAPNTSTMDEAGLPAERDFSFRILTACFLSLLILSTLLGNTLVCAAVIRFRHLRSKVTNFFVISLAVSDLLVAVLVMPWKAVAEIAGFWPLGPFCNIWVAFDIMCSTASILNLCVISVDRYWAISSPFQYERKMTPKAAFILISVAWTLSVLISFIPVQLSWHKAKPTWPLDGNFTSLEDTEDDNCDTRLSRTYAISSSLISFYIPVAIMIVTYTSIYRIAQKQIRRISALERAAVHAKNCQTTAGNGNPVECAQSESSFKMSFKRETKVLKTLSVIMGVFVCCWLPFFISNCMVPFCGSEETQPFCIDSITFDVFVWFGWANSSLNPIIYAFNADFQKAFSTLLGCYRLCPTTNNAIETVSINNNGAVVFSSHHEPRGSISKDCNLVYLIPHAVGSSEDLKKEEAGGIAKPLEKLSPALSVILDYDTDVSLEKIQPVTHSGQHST
Chain of D(2) dopamine receptor (P61169 whole entry): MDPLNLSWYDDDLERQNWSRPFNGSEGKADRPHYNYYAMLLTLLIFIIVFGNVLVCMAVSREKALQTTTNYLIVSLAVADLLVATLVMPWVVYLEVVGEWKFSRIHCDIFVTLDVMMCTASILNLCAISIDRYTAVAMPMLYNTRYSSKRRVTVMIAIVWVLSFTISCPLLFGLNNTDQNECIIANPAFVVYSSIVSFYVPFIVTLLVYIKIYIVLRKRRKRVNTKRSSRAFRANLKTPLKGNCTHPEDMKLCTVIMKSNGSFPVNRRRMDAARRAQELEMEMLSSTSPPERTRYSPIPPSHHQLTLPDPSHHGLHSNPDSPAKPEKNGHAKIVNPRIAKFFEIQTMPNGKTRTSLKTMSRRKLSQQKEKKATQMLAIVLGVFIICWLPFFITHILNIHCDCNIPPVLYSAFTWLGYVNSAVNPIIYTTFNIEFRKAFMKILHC
Chain of Sodium-dependent dopamine transporter (P23977 whole entry): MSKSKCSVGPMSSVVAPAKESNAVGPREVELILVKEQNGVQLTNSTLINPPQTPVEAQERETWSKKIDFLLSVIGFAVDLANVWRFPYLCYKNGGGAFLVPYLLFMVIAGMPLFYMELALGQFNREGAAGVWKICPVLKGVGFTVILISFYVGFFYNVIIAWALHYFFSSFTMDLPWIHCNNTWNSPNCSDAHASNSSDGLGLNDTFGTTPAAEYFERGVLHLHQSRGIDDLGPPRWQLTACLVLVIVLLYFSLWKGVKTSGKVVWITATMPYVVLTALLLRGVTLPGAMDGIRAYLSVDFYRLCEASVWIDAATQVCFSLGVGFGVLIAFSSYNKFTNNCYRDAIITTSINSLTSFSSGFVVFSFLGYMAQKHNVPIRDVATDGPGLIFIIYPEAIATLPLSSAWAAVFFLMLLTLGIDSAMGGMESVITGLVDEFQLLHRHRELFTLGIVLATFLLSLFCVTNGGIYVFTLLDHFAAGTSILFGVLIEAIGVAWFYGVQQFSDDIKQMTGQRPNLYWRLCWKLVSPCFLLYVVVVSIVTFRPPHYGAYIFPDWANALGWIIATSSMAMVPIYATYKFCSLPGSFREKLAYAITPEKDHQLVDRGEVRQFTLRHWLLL
Chain of 5-hydroxytryptamine receptor 2A (P14842 whole entry): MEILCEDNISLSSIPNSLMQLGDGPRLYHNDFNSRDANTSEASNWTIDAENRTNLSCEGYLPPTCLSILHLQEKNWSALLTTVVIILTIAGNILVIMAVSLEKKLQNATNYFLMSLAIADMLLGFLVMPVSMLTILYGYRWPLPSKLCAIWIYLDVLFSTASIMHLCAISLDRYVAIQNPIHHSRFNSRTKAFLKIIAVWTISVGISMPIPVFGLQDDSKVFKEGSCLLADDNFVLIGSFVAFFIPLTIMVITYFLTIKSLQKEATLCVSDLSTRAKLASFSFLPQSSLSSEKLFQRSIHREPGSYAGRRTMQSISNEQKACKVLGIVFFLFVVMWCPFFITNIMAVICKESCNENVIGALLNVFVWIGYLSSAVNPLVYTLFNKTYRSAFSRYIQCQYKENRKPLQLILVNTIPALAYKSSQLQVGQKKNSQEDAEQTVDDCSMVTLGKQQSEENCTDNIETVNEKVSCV
Chain of Sodium-dependent serotonin transporter (P31652 whole entry): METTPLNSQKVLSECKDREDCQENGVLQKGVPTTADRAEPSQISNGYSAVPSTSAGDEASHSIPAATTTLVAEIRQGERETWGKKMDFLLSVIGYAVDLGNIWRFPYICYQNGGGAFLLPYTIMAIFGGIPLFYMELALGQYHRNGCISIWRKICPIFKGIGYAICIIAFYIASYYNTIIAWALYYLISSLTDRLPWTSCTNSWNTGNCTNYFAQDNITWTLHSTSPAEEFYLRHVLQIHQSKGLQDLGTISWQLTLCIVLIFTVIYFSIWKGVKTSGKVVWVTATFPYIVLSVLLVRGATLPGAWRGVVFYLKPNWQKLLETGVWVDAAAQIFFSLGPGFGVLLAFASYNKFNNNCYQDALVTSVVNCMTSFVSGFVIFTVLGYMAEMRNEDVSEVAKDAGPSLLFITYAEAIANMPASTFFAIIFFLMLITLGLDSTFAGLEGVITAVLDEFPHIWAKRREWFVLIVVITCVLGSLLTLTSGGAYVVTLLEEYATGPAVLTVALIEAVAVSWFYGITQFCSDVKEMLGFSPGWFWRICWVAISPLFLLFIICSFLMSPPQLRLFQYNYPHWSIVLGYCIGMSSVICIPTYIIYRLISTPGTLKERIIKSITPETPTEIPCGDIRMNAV

On to `CCc1nn(CCCN2CCN(c3cccc(Cl)c3)CC2)c(=O)n1CCOc1ccccc1` [2-{3-[4-(3-chlorophenyl)piperazin-1-yl]propyl}-5-ethyl-4-(2-phenoxyethyl)-2,4-dihydro-3H-1,2,4-triazol-3-one], for which the Ki in assay [1] is 470 nM; in assay [2], greater than 10000 nM; in assay [3], 42 nM; in [4], greater than 10000 nM; at Histamine H1 receptor, 370 nM; in assay [5], 1000 nM. Moreover, the inhibitory constant (Ki) was 1200 nM in assay [6], 1500 nM at D(1A) dopamine receptor and 110 nM in [7].
Consider `CN(C)CCCC1(c2ccc(F)cc2)OCc2cc(C#N)ccc21` (stereo unspecified) [CITALOPRAM HYDROBROMIDE], for which the inhibition constant Ki was greater than 10000 nM in [2]; greater than 10000 nM on D(2) dopamine receptor; 5600 nM in assay [4]; greater than 10000 nM in [5]; 630 nM in assay [8]; greater than 10000 nM in [6]. The Ki at D(1A) dopamine receptor was greater than 10000 nM.
As to `CN(C)CCC=C1c2ccccc2CSc2ccccc21` [CAS_897-15-4], the Ki stood at 5180 nM in assay [1]; 419 nM in assay [3]; 152 nM in [9]; 26 nM in assay [4]; 4 nM on Histamine H1 receptor; 4000 nM in assay [5]. Also, the Ki in assay [6] stood at 12 nM; in assay [7], 70 nM.
With `COCCCC/C(=N\OCCN)c1ccc(C(F)(F)F)cc1` [(1E)-5-methoxy-1-[4-(trifluoromethyl)phenyl]pentan-1-one O-(2-aminoethyl)oxime], the Ki was greater than 10000 nM in [1]; greater than 10000 nM in assay [2]; 4800 nM in [3]; greater than 10000 nM on D(2) dopamine receptor; greater than 10000 nM in assay [9]; greater than 10000 nM in assay [4]. In addition, the Ki at Histamine H1 receptor is greater than 10000 nM; in assay [5], greater than 10000 nM; in assay [8] it was 6700 nM; in [6], 1900 nM; at D(1A) dopamine receptor, greater than 10000 nM; in assay [7] it was 620 nM.
With `CC(NC(C)(C)C)C(=O)c1cccc(Cl)c1` (stereo unspecified) [BUPROPION HYDROCHLORIDE], the inhibitory constant (Ki) in assay [1] is 570 nM; in assay [2] it was greater than 10000 nM; in [3], greater than 10000 nM; on D(2) dopamine receptor it was greater than 10000 nM; in assay [4], greater than 10000 nM; in assay [8], greater than 10000 nM. In addition, the Ki was greater than 10000 nM in assay [6], greater than 10000 nM on D(1A) dopamine receptor and 1400 nM in [7].
`COc1ccc(C(CN(C)C)C2(O)CCCCC2)cc1` (stereo unspecified) [NSC_62923]: the Ki (at D(2) dopamine receptor; in [4]; at Histamine H1 receptor; in [5]; in [8]; in assay [6]) was greater than 10000 nM each time. The molecule further came in with a Ki at D(1A) dopamine receptor greater than 10000 nM.
In the case of `CN(C)CCC=C1c2ccccc2CCc2ccccc21`, the Ki was 5300 nM in [1]; greater than 10000 nM in assay [2]; 69 nM in [3]; 850 nM at D(2) dopamine receptor; 11 nM in assay [9]; 8.9 nM in [4]. In addition, the inhibition constant Ki was 8.3 nM at Histamine H1 receptor; greater than 10000 nM in [5]; 8 nM in assay [8]; 340 nM in assay [6]; 81 nM on D(1A) dopamine receptor; 24 nM in assay [7].
In the case of `CN(CCCN1c2ccccc2CCc2ccccc21)CC(=O)c1ccc(Cl)cc1` [CAS_23047-25-8], the Ki in assay [10] is 880 nM; in assay [1], 3300 nM; in assay [2], greater than 10000 nM; in [3] it was 620 nM; on D(2) dopamine receptor, 6700 nM; in assay [9] it was 1200 nM. For the same molecule, the Ki is 300 nM in [4]; 1000 nM on Histamine H1 receptor; greater than 10000 nM in [5]; 2100 nM in assay [6]; 500 nM at D(1A) dopamine receptor; 2.7 nM in assay [7].
With `CN[C@@H]1CC[C@@H](c2ccc(Cl)c(Cl)c2)c2ccccc21` [[4-(3,4-Dichloro-phenyl)-1,2,3,4-tetrahydro-naphthalen-1-yl]-methyl-amine], the Ki in [2] was greater than 10000 nM; in [3] it was 2800 nM; at D(2) dopamine receptor, greater than 10000 nM; in assay [4], 1100 nM; on Histamine H1 receptor, greater than 10000 nM; in [5], greater than 10000 nM. The same molecule registered a Ki on D(1A) dopamine receptor of 6300 nM.
For `CNCC[C@@H](Oc1ccc(C(F)(F)F)cc1)c1ccccc1` [Prozac], the Ki in [2] is greater than 10000 nM; on D(2) dopamine receptor, greater than 10000 nM; on Histamine H1 receptor, 3200 nM; on D(1A) dopamine receptor it was greater than 10000 nM.
For the molecule `Fc1ccc([C@@H]2CCNC[C@H]2COc2ccc3c(c2)OCO3)cc1` [PAROXETINE], the Ki was greater than 10000 nM in assay [2]; greater than 10000 nM in assay [3]; greater than 10000 nM on D(2) dopamine receptor; 210 nM in assay [4]; greater than 10000 nM at Histamine H1 receptor; greater than 10000 nM in [5]. Besides, the inhibition constant (Ki) was greater than 10000 nM in assay [8], 8900 nM in assay [6] and greater than 10000 nM on D(1A) dopamine receptor.
